# Assays:
# OVCAR-3 = test: NCI cytotoxicity screen, Ovarian Cancer panel; type: cell-based, human; conditions: Homo sapiens; OVCAR-3; single dose 10 µM; negative = lethal; read-out: Percent growth inhibition
# Description: (§1) Cytotoxicity was performed at National Cancer Institute (NCI), Bethesda, USA as per their protocols.
# UACC-257 = test: NCI cytotoxicity screen, Melanoma panel; type: cell-based; conditions: Homo sapiens, single dose 10 µM, negative = lethal, read-out: Percent growth inhibition
# Description: as §1
# SK-MEL-5 = test: NCI cytotoxicity screen, Melanoma panel; type: cell-based; conditions: Homo sapiens, single dose 10 µM, negative = lethal, read-out: Percent growth inhibition
# Description: as §1
# SK-MEL-28 = test: NCI cytotoxicity screen, Melanoma panel; type: cell-based; conditions: Homo sapiens, single dose 10 µM, negative = lethal, read-out: Percent growth inhibition
# Description: as §1
# MDA-MB-435 = test: NCI cytotoxicity screen, Melanoma panel; type: cell-based; conditions: Homo sapiens, MDA-MB-435, read-out: Percent growth inhibition
# Description: as §1
# SK-MEL-2 = test: NCI cytotoxicity screen, Melanoma panel; type: cell-based; conditions: Homo sapiens, single dose 10 µM, negative = lethal, read-out: Percent growth inhibition
# Description: as §1
# MALME-3M = test: NCI cytotoxicity screen, Melanoma panel; type: cell-based; conditions: Homo sapiens; MALME-3M; single dose 10 µM; negative = lethal; read-out: Percent growth inhibition
# Description: as §1
# MCF7 = test: NCI cytotoxicity screen, Breast Cancer panel; type: cell-based; conditions: Homo sapiens, single dose 10 µM, negative = lethal, read-out: Percent growth inhibition
# Description: as §1
# HS 578 T = test: NCI cytotoxicity screen, Breast Cancer panel; type: cell-based; conditions: Homo sapiens; HS 578T; single dose 10 µM; negative = lethal; read-out: Percent growth inhibition
# Description: as §1
# MDA-MB-468 = test: NCI cytotoxicity screen, Breast Cancer panel; type: cell-based; conditions: Homo sapiens, single dose 10 µM, negative = lethal, read-out: Percent growth inhibition
# Description: as §1
# T-47D = test: NCI cytotoxicity screen, Breast Cancer panel; type: cell-based; conditions: Homo sapiens, T47D, T-47D; single dose 10 µM; negative = lethal; read-out: Percent growth inhibition
# Description: as §1
# MDA-MB-231/ATCC = test: NCI cytotoxicity screen, Breast Cancer panel; type: cell-based; conditions: Homo sapiens, MDA-MB-231, read-out: Percent growth inhibition
# Description: as §1
# BT-549 = test: NCI cytotoxicity screen, Breast Cancer panel; type: cell-based; conditions: Homo sapiens, single dose 10 µM, negative = lethal, read-out: Percent growth inhibition
# Description: as §1
# HCC-2998 = test: NCI cytotoxicity screen, Colon Cancer panel; type: cell-based, human; conditions: Homo sapiens; HCC-2998; single dose 10 µM; negative = lethal; read-out: Percent growth inhibition
# Description: as §1
# SW-620 = test: NCI cytotoxicity screen, Colon Cancer panel; type: cell-based, human; conditions: Homo sapiens, single dose 10 µM, negative = lethal, read-out: Percent growth inhibition
# Description: as §1
# KM12 = test: NCI cytotoxicity screen, Colon Cancer panel; type: cell-based, human; conditions: Homo sapiens, single dose 10 µM, negative = lethal, read-out: Percent growth inhibition
# Description: as §1
# HCT-116 = test: NCI cytotoxicity screen, Colon Cancer panel; type: cell-based; conditions: Homo sapiens, single dose 10 µM, negative = lethal, read-out: Percent growth inhibition
# Description: as §1
# HT29 = test: NCI cytotoxicity screen, Colon Cancer panel; type: cell-based; conditions: Homo sapiens, HT-29; HT29; single dose 10 µM; negative = lethal; read-out: Percent growth inhibition
# Description: as §1
# COLO 205 = test: NCI cytotoxicity screen, Colon Cancer panel; type: cell-based; conditions: Homo sapiens, single dose 10 µM, negative = lethal, read-out: Percent growth inhibition
# Description: as §1
# HCT-15 = test: NCI cytotoxicity screen, Colon Cancer panel; type: cell-based; conditions: Homo sapiens, single dose 10 µM, negative = lethal, read-out: Percent growth inhibition
# Description: as §1
# SF-539 = test: NCI cytotoxicity screen, CNS Cancer panel; type: cell-based; conditions: Homo sapiens, single dose 10 µM, negative = lethal, read-out: Percent growth inhibition
# Description: as §1
# SF-268 = test: NCI cytotoxicity screen, CNS Cancer panel; type: cell-based; conditions: Homo sapiens, single dose 10 µM, negative = lethal, read-out: Percent growth inhibition
# Description: as §1
# SNB-19 = test: NCI cytotoxicity screen, CNS Cancer panel; type: cell-based; conditions: Homo sapiens; SNB-19; single dose 10 µM; negative = lethal; read-out: Percent growth inhibition
# Description: as §1
# U251 = test: NCI cytotoxicity screen, CNS Cancer panel; type: cell-based; conditions: Homo sapiens, U-251; U251; single dose 10 µM; negative = lethal; read-out: Percent growth inhibition
# Description: as §1
# SNB-75 = test: NCI cytotoxicity screen, CNS Cancer panel; type: cell-based; conditions: Homo sapiens, single dose 10 µM, negative = lethal, read-out: Percent growth inhibition
# Description: as §1
# SF-295 = test: NCI cytotoxicity screen, CNS Cancer panel; type: cell-based; conditions: Homo sapiens, single dose 10 µM, negative = lethal, read-out: Percent growth inhibition
# Description: as §1
# 786-0 = test: NCI cytotoxicity screen, Renal Cancer panel; type: cell-based, human; conditions: Homo sapiens, single dose 10 µM, negative = lethal, read-out: Percent growth inhibition
# Description: as §1
# TK-10 = test: NCI cytotoxicity screen, Renal Cancer panel; type: cell-based, human; conditions: Homo sapiens, single dose 10 µM, negative = lethal, read-out: Percent growth inhibition
# Description: as §1
# NCI-H460 = test: NCI cytotoxicity screen, Non-Small Cell Lung Cancer panel; type: cell-based; conditions: Homo sapiens, single dose 10 µM, negative = lethal, read-out: Percent growth inhibition
# Description: as §1
# A549/ATCC = test: as above; type: cell-based; conditions: Homo sapiens; A549/ATCC; single dose 10 µM; negative = lethal; read-out: Percent growth inhibition
# Description: as §1
# HOP-92 = test: as above; type: cell-based; conditions: Homo sapiens, single dose 10 µM, negative = lethal, read-out: Percent growth inhibition
# Description: as §1
# HOP-62 = test: as above; type: cell-based; conditions: Homo sapiens, single dose 10 µM, negative = lethal, read-out: Percent growth inhibition
# Description: as §1
# EXVX = test: as above; type: cell-based; conditions: Homo sapiens; EXVX; single dose 10 µM; negative = lethal; read-out: Percent growth inhibition
# Description: as §1
# UO-31 = test: NCI cytotoxicity screen, Renal Cancer panel; type: cell-based; conditions: Homo sapiens, single dose 10 µM, negative = lethal, read-out: Percent growth inhibition
# Description: as §1
# RXF 393 = test: NCI cytotoxicity screen, Renal Cancer panel; type: cell-based; conditions: Homo sapiens, single dose 10 µM, negative = lethal, read-out: Percent growth inhibition
# Description: as §1
# A498 = test: NCI cytotoxicity screen, Renal Cancer panel; type: cell-based; conditions: Homo sapiens, single dose 10 µM, negative = lethal, read-out: Percent growth inhibition
# Description: as §1
# SN12C = test: NCI cytotoxicity screen, Renal Cancer panel; type: cell-based; conditions: Homo sapiens, single dose 10 µM, negative = lethal, read-out: Percent growth inhibition
# Description: as §1
# ACHN = test: NCI cytotoxicity screen, Renal Cancer panel; type: cell-based; conditions: Homo sapiens, single dose 10 µM, negative = lethal, read-out: Percent growth inhibition
# Description: as §1
# LOX IMVI = test: NCI cytotoxicity screen, Melanoma panel; type: cell-based, human; conditions: Homo sapiens, single dose 10 µM, negative = lethal, read-out: Percent growth inhibition
# Description: as §1
# M14 = test: NCI cytotoxicity screen, Melanoma panel; type: cell-based, human; conditions: Homo sapiens, single dose 10 µM, negative = lethal, read-out: Percent growth inhibition
# Description: as §1
# PC-3 = test: NCI cytotoxicity screen, Prostate Cancer panel; type: cell-based, human; conditions: Homo sapiens, single dose 10 µM, negative = lethal, read-out: Percent growth inhibition
# Description: as §1
# DU-145 = test: NCI cytotoxicity screen, Prostate Cancer panel; type: cell-based, human; conditions: Homo sapiens, single dose 10 µM, negative = lethal, read-out: Percent growth inhibition
# Description: as §1
# IGROV1 = test: NCI cytotoxicity screen, Ovarian Cancer panel; type: cell-based; conditions: Homo sapiens, IGROV-1, single dose 10 µM, negative = lethal, read-out: Percent growth inhibition
# Description: as §1
# OVCAR-5 = test: NCI cytotoxicity screen, Ovarian Cancer panel; type: cell-based; conditions: Homo sapiens, single dose 10 µM, negative = lethal, read-out: Percent growth inhibition
# Description: as §1
# NCI/ADR-RES = test: NCI cytotoxicity screen, Ovarian Cancer panel; type: cell-based; conditions: Homo sapiens, single dose 10 µM, negative = lethal, read-out: Percent growth inhibition
# Description: as §1
# SK-OV-3 = test: NCI cytotoxicity screen, Ovarian Cancer panel; type: cell-based; conditions: Homo sapiens, single dose 10 µM, negative = lethal, read-out: Percent growth inhibition
# Description: as §1
# OVCAR-8 = test: NCI cytotoxicity screen, Ovarian Cancer panel; type: cell-based; conditions: Homo sapiens, single dose 10 µM, negative = lethal, read-out: Percent growth inhibition
# Description: as §1
# OVCAR-4 = test: NCI cytotoxicity screen, Ovarian Cancer panel; type: cell-based; conditions: Homo sapiens; OVCAR-4; single dose 10 µM; negative = lethal; read-out: Percent growth inhibition
# Description: as §1
# RPMI-8226 = test: NCI cytotoxicity screen, Leukemia panel; type: cell-based; conditions: Homo sapiens; RPMI-8226; single dose 10 µM; negative = lethal; read-out: Percent growth inhibition
# Description: as §1
# SR = test: NCI cytotoxicity screen, Leukemia panel; type: cell-based; conditions: Homo sapiens, single dose 10 µM, negative = lethal, read-out: Percent growth inhibition
# Description: as §1
# K-562 = test: NCI cytotoxicity screen, Leukemia panel; type: cell-based; conditions: Homo sapiens, K562; K-562; single dose 10 µM; negative = lethal; read-out: Percent growth inhibition
# Description: as §1
# MOLT-4 = test: NCI cytotoxicity screen, Leukemia panel; type: cell-based; conditions: Homo sapiens, MOLT-4, MOLT-4; single dose 10 µM; negative = lethal; read-out: Percent growth inhibition
# Description: as §1
# CCRF-CEM = test: NCI cytotoxicity screen, Leukemia panel; type: cell-based; conditions: Homo sapiens, single dose 10 µM, negative = lethal, read-out: Percent growth inhibition
# Description: as §1
# HL-60(TB) = test: NCI cytotoxicity screen, Leukemia panel; type: cell-based; conditions: Homo sapiens, HL-60, HL-60(TB); single dose 10 µM; negative = lethal; read-out: Percent growth inhibition
# Description: as §1
# NCI-H23 = test: NCI cytotoxicity screen, Non-Small Cell Lung Cancer panel; type: cell-based, human; conditions: Homo sapiens, single dose 10 µM, negative = lethal, read-out: Percent growth inhibition
# Description: as §1
# NCI-H226 = test: as above; type: cell-based, human; conditions: Homo sapiens, single dose 10 µM, negative = lethal, read-out: Percent growth inhibition
# Description: as §1
# NCI-522 = test: as above; type: cell-based, human; conditions: Homo sapiens; NCI-522; single dose 10 µM; negative = lethal; read-out: Percent growth inhibition
# Description: as §1
# NCI-H322M = test: as above; type: cell-based, human; conditions: Homo sapiens, single dose 10 µM, negative = lethal, read-out: Percent growth inhibition
# Description: as §1
structure (smiles),measurement,setting,value
"Brc1cn2ccnc2c(-c2ccc3c(c2)ncn3C2CCCCC2)n1 [Compound 8, 6-bromo-8-(1-cyclohexyl-1H-benzo[d]imidazol-5-yl)imidazo[1,2-a]pyrazine]",inhibition at 10 µM,OVCAR-3,< 1%
same,inhibition at 10 µM,UACC-257,< 1%
same,inhibition at 10 µM,SK-MEL-5,8.35%
same,inhibition at 10 µM,SK-MEL-28,< 1%
same,inhibition at 10 µM,MDA-MB-435,< 1%
same,inhibition at 10 µM,SK-MEL-2,0.53%
same,inhibition at 10 µM,MALME-3M,< 1%
same,inhibition at 10 µM,MCF7,37.6%
same,inhibition at 10 µM,HS 578 T,2.68%
same,inhibition at 10 µM,MDA-MB-468,6.27%
same,inhibition at 10 µM,T-47D,25.3%
same,inhibition at 10 µM,MDA-MB-231/ATCC,3.12%
same,inhibition at 10 µM,BT-549,6.38%
same,inhibition at 10 µM,HCC-2998,3.13%
same,inhibition at 10 µM,SW-620,< 1%
same,inhibition at 10 µM,KM12,< 1%
same,inhibition at 10 µM,HCT-116,6.06%
same,inhibition at 10 µM,HT29,4.48%
same,inhibition at 10 µM,COLO 205,< 1%
same,inhibition at 10 µM,HCT-15,4.25%
same,inhibition at 10 µM,SF-539,6.65%
same,inhibition at 10 µM,SF-268,5.8%
same,inhibition at 10 µM,SNB-19,10.5%
same,inhibition at 10 µM,U251,< 1%
same,inhibition at 10 µM,SNB-75,16.4%
same,inhibition at 10 µM,SF-295,7.58%
same,inhibition at 10 µM,786-0,1.3%
same,inhibition at 10 µM,TK-10,< 1%
same,inhibition at 10 µM,NCI-H460,3.26%
same,inhibition at 10 µM,A549/ATCC,4.8%
same,inhibition at 10 µM,HOP-92,21.9%
same,inhibition at 10 µM,HOP-62,13%
same,inhibition at 10 µM,EXVX,10.3%
same,inhibition at 10 µM,UO-31,40.1%
same,inhibition at 10 µM,RXF 393,< 1%
same,inhibition at 10 µM,A498,3.51%
same,inhibition at 10 µM,SN12C,< 1%
same,inhibition at 10 µM,ACHN,< 1%
same,inhibition at 10 µM,LOX IMVI,9.14%
same,inhibition at 10 µM,M14,< 1%
same,inhibition at 10 µM,PC-3,10.3%
same,inhibition at 10 µM,DU-145,< 1%
same,inhibition at 10 µM,IGROV1,8.45%
same,inhibition at 10 µM,OVCAR-5,< 1%
same,inhibition at 10 µM,NCI/ADR-RES,5.47%
same,inhibition at 10 µM,SK-OV-3,6.59%
same,inhibition at 10 µM,OVCAR-8,3.55%
same,inhibition at 10 µM,OVCAR-4,9.25%
same,inhibition at 10 µM,RPMI-8226,< 1%
same,inhibition at 10 µM,SR,20.6%
same,inhibition at 10 µM,K-562,17.4%
same,inhibition at 10 µM,MOLT-4,17.4%
same,inhibition at 10 µM,CCRF-CEM,< 1%
same,inhibition at 10 µM,HL-60(TB),10.5%
same,inhibition at 10 µM,NCI-H23,8.76%
same,inhibition at 10 µM,NCI-H226,3.73%
same,inhibition at 10 µM,NCI-522,15.2%
same,inhibition at 10 µM,NCI-H322M,10.9%
